This is an account of results in patent US11203571B2, “Sulfonamides as modulators of sodium channels” (VERTEX PHARMACEUTICALS INCORPORATED, priority 2013, dated 2021).

For orientation: IC50 means the point on the concentration scale where inhibition reaches its midpoint. High values mean weaker potency in that assay, low ones greater potency in that assay.

Data set [1] concerns the target human Nav1.8 (Homo sapiens (Human), UniProt Q9Y5Y9). As to the kind of experiment: E-VIPR optical membrane potential assay with electrical stimulation. Type of data set: cell-based. The following applies: HEK cells expressing human Nav1.8. In outline:
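HEK cells expressing human Nav1.8 were loaded with CC2-DMPE (8 μM) and DiSBAC6(3) (2.5 μM), then given compound for 20-35 min at room temperature (0.625% DMSO). Cells received a 10-s current-controlled electrical stimulus. Response was the stimulated/baseline 460/580 nm emission ratio (Rf/Ri), with tetracaine (125 μM) as positive control.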

Data set [2] in a line: Human liver microsome assay. Type of data set: in vitro ADME. The note with it: 1 uM substrate, 0.5 mg/mL liver microsome, 2 mM NADPH, 37° C., referenced against time zero control. The procedure, abridged: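 Pooled human liver microsomes (0.5 mg/mL) with 1 uM substrate (0.2% DMSO), 2 mM NADPH, 0.1 M phosphate, shaken 30 min at 37° C. Quenched with cold acetonitrile; parent quantified by LC/MS/MS. Value is % substrate remaining at 30 min versus a time-zero control without NADPH.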

Chain of human Nav1.8 (Q9Y5Y9 whole entry): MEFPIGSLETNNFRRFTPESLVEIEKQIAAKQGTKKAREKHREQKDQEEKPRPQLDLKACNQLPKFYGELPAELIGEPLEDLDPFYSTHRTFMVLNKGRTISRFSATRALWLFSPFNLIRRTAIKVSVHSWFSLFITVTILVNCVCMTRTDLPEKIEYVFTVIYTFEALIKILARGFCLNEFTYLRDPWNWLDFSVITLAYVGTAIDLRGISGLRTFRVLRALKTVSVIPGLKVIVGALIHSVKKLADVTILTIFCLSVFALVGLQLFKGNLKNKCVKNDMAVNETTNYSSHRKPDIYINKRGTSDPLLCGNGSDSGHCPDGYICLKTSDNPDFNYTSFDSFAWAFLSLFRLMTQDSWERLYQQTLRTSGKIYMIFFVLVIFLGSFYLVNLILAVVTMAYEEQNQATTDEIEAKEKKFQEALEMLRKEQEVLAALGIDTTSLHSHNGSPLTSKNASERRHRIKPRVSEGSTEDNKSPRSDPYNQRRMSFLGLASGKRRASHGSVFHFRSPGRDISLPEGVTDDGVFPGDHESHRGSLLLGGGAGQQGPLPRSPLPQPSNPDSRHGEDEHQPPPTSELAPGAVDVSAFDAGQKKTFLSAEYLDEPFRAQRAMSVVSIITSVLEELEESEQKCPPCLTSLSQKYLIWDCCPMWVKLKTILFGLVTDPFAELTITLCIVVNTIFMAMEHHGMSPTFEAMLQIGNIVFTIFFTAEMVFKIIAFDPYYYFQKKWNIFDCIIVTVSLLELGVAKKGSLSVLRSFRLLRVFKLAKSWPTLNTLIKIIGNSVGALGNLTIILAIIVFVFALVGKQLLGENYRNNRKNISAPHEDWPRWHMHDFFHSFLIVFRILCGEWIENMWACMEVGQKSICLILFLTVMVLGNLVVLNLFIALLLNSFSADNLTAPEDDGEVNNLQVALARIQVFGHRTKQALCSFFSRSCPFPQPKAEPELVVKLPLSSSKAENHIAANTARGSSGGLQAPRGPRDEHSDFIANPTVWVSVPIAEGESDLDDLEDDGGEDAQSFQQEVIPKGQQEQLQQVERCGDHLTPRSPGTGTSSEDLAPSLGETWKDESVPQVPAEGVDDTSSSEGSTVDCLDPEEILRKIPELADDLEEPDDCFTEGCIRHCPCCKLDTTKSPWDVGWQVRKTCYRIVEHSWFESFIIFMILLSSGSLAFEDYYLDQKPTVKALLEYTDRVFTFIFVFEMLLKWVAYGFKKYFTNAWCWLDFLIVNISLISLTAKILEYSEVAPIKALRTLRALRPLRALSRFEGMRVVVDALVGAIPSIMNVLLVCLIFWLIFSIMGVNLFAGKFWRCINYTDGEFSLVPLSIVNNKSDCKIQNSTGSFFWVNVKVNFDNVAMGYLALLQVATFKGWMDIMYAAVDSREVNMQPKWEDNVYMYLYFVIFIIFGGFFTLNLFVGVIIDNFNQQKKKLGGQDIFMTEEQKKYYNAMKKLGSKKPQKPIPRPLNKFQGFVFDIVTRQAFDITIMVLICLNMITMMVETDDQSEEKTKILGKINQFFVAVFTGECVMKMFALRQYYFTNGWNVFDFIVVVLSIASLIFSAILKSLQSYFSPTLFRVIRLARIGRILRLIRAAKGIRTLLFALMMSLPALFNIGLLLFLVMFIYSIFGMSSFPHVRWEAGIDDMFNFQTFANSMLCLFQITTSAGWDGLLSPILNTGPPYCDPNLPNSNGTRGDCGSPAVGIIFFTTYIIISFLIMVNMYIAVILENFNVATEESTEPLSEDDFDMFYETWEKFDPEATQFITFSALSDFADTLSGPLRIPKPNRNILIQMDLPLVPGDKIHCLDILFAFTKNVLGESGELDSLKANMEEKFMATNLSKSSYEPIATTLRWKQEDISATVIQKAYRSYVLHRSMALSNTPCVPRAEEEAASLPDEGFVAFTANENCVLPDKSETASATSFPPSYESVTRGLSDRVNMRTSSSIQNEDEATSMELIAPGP

Compound `COc1ccc(Oc2cc(OC(F)(F)F)ccc2C(=O)Nc2cccc(S(N)(=O)=O)c2)c(Cl)c1` [Compound 62, 2-(2-chloro-4-methoxyphenoxy)-N-(3-sulfamoylphenyl)-4-(trifluoromethoxy)benzamide] had a concentration for half-maximal inhibition (IC50) in data set [1] of 16 nM. Further, the “HLM: percent unchanged after 30 min” value in data set [2] was 81%.
`NS(=O)(=O)c1cccc(NC(=O)c2ccc(OC(F)(F)F)cc2Oc2ccccc2Cl)c1` [Compound 63, 2-(2-chlorophenoxy)-N-(3-sulfamoylphenyl)-4-(trifluoromethoxy)benzamide] had an IC50 in data set [1] of 27 nM. Also, the “HLM: percent unchanged after 30 min” value in data set [2] came out at 92%.
The corresponding values for `NS(=O)(=O)c1cccc(NC(=O)c2ccc(OC(F)(F)F)cc2Oc2ccccc2OC(F)F)c1` [Compound 64, 2-(2-(difluoromethoxy)phenoxy)-N-(3-sulfamoylphenyl)-4-(trifluoromethoxy)benzamide] are 22 nM and 96%.
For `COc1cc(Cl)ccc1Oc1cc(OC(F)(F)F)ccc1C(=O)Nc1cccc(S(N)(=O)=O)c1` [Compound 65, 2-(4-chloro-2-methoxyphenoxy)-N-(3-sulfamoylphenyl)-4-(trifluoromethoxy)benzamide], in that order: 22 nM and 101%.
As to `COc1c(Cl)cccc1Oc1cc(OC(F)(F)F)ccc1C(=O)Nc1cccc(S(N)(=O)=O)c1` [Compound 66, 2-(3-chloro-2-methoxyphenoxy)-N-(3-sulfamoylphenyl)-4-(trifluoromethoxy)benzamide], the half-maximal inhibitory concentration (IC50) in data set [1] was 7 nM. In addition, the “HLM: percent unchanged after 30 min” value in data set [2] is given as 89%.
For `COc1ccc(Oc2cc(C(F)(F)F)ccc2C(=O)Nc2cccc(S(N)(=O)=O)c2)cc1Cl` [Compound 67, 2-(3-chloro-4-methoxyphenoxy)-N-(3-sulfamoylphenyl)-4-(trifluoromethyl)benzamide], in that order: 26 nM and 91%.
For `COc1c(Cl)cccc1Oc1cc(C(F)(F)F)ccc1C(=O)Nc1cccc(S(N)(=O)=O)c1` [Compound 68, 2-(3-chloro-2-methoxyphenoxy)-N-(3-sulfamoylphenyl)-4-(trifluoromethyl)benzamide], in that order: 9 nM and 80%.
For `NS(=O)(=O)c1cccc(NC(=O)c2ccc(C(F)(F)C(F)(F)F)cc2Oc2ccc(F)cc2)c1` [Compound 69, 2-(4-fluorophenoxy)-4-(perfluoroethyl)-N-(3-sulfamoylphenyl)benzamide], in that order: 26 nM and 110%.
In data set [1], `COc1cc(F)ccc1Oc1cc(C(F)(F)C(F)(F)F)ccc1C(=O)Nc1cccc(S(N)(=O)=O)c1` [Compound 70, 2-(4-fluoro-2-methoxyphenoxy)-4-(perfluoroethyl)-N-(3-sulfamoylphenyl)benzamide] gave a concentration for half-maximal inhibition (IC50) of 13 nM. Besides, the “HLM: percent unchanged after 30 min” value in data set [2] amounted to 87%.
With `COc1cc(Cl)ccc1Oc1cc(C(F)(F)C(F)(F)F)ccc1C(=O)Nc1cccc(S(N)(=O)=O)c1` [Compound 71, 2-(4-chloro-2-methoxyphenoxy)-4-(perfluoroethyl)-N-(3-sulfamoylphenyl)benzamide], in data set [1], the IC50 was found to be 28 nM. Further, the “HLM: percent unchanged after 30 min” value in data set [2] stood at 81%.
The corresponding values for `COc1ccc(Oc2cc(C(F)(F)C(F)(F)F)ccc2C(=O)Nc2cccc(S(N)(=O)=O)c2)c(Cl)c1` [Compound 72, 2-(2-chloro-4-methoxyphenoxy)-4-(perfluoroethyl)-N-(3-sulfamoylphenyl)benzamide] are 20 nM and 67%.
On to `NS(=O)(=O)c1cccc(NC(=O)c2ccc(C(F)(F)F)cc2Oc2ccccc2Cl)c1` [Compound 73, 2-(2-chlorophenoxy)-N-(3-sulfamoylphenyl)-4-(trifluoromethyl)benzamide], for which the 50% inhibitory concentration (IC50) in data set [1] was determined as 26 nM. For the same compound, in data set [2], the “HLM: percent unchanged after 30 min” value is 95%.
For `NS(=O)(=O)c1cccc(NC(=O)c2c(Oc3ccccc3Cl)cccc2C(F)(F)F)c1` [Compound 74, 2-(2-chlorophenoxy)-N-(3-sulfamoylphenyl)-6-(trifluoromethyl)benzamide], in that order: 15 nM and 102%.
For `COc1ccc(Oc2cccc(C(F)(F)F)c2C(=O)Nc2cccc(S(N)(=O)=O)c2)c(Cl)c1` [Compound 75, 2-(2-chloro-4-methoxyphenoxy)-N-(3-sulfamoylphenyl)-6-(trifluoromethyl)benzamide], in that order: 5 nM and 62%.
Compound `COc1cc(F)ccc1Oc1cc(Cl)c(Cl)cc1C(=O)Nc1cccc(S(N)(=O)=O)c1` [Compound 77, 4,5-dichloro-2-(4-fluoro-2-methoxyphenoxy)-N-(3-sulfamoylphenyl)benzamide] yielded an IC50 in data set [1] of 1 nM. In addition, the “HLM: percent unchanged after 30 min” value in data set [2] is recorded as 95%.
`NS(=O)(=O)c1cccc(NC(=O)c2cc(Cl)c(Cl)cc2Oc2ccc(F)cc2)c1` [Compound 78, 4,5-dichloro-2-(4-fluorophenoxy)-N-(3-sulfamoylphenyl)benzamide] had a 50% inhibitory concentration (IC50) in data set [1] of 8 nM. Further, the “HLM: percent unchanged after 30 min” value in data set [2] is recorded as 104%.
The corresponding values for `COc1ccc(Oc2cc(Cl)c(Cl)cc2C(=O)Nc2cccc(S(N)(=O)=O)c2)cc1F` [Compound 79, 4,5-dichloro-2-(3-fluoro-4-methoxyphenoxy)-N-(3-sulfamoylphenyl)benzamide] are 4 nM and 91%.
For `COc1cc(Cl)ccc1Oc1cc(Cl)c(Cl)cc1C(=O)Nc1cccc(S(N)(=O)=O)c1` [Compound 80, 4,5-dichloro-2-(4-chloro-2-methoxyphenoxy)-N-(3-sulfamoylphenyl)benzamide], in that order: 4 nM and 108%.
As to `COc1ccc(Oc2cc(Cl)c(Cl)cc2C(=O)Nc2cccc(S(N)(=O)=O)c2)c(F)c1` [Compound 81, 4,5-dichloro-2-(2-fluoro-4-methoxyphenoxy)-N-(3-sulfamoylphenyl)benzamide], the IC50 in data set [1] came out at 8 nM. Moreover, the “HLM: percent unchanged after 30 min” value in data set [2] was 88%.
`COc1ccc(Oc2cc(Cl)c(Cl)cc2C(=O)Nc2cccc(S(N)(=O)=O)c2)c(Cl)c1` [Compound 82, 4,5-dichloro-2-(2-chloro-4-methoxyphenoxy)-N-(3-sulfamoylphenyl)benzamide] came in with an IC50 in data set [1] of 6 nM. Besides, the “HLM: percent unchanged after 30 min” value in data set [2] came to 77%.
In turn, `Cc1cc(F)ccc1Oc1cc(Cl)c(Cl)cc1C(=O)Nc1cccc(S(N)(=O)=O)c1` [Compound 83, 4,5-dichloro-2-(4-fluoro-2-methylphenoxy)-N-(3-sulfamoylphenyl)benzamide] registered an IC50 in data set [1] of 5 nM. Also, the “HLM: percent unchanged after 30 min” value in data set [2] is reported as 93%.
The corresponding values for `COc1ccc(Oc2cc(Cl)ccc2C(=O)Nc2cccc(S(N)(=O)=O)c2)c(OC)c1` [Compound 84, 4-chloro-2-(2,4-dimethoxyphenoxy)-N-(3-sulfamoylphenyl)benzamide] are 13 nM and 82%.
The compound `COc1ccc(Oc2cc(Cl)ccc2C(=O)Nc2cccc(S(N)(=O)=O)c2)c(Cl)c1` [Compound 86, 4-chloro-2-(2-chloro-4-methoxyphenoxy)-N-(3-sulfamoylphenyl)benzamide] yielded a 50% inhibitory concentration (IC50) in data set [1] of 15 nM. For the same compound, the “HLM: percent unchanged after 30 min” value in data set [2] is reported as 82%.
For `NS(=O)(=O)c1cccc(NC(=O)c2c(Oc3ccc(F)cc3)cc(C(F)(F)F)cc2C(F)(F)F)c1` [Compound 88, 2-(4-fluorophenoxy)-N-(3-sulfamoylphenyl)-4,6-bis(trifluoromethyl)benzamide], in that order: 7 nM and 105%.
`COc1cc(F)ccc1Oc1cc(C(F)(F)F)cc(C(F)(F)F)c1C(=O)Nc1cccc(S(N)(=O)=O)c1` [Compound 89, 2-(4-fluoro-2-methoxyphenoxy)-N-(3-sulfamoylphenyl)-4,6-bis(trifluoromethyl)benzamide]: the IC50 in data set [1] came out at 1 nM. Besides, the “HLM: percent unchanged after 30 min” value in data set [2] stood at 87%.
For `COc1ccc(Oc2cc(C(F)(F)F)cc(C(F)(F)F)c2C(=O)Nc2cccc(S(N)(=O)=O)c2)cc1F` [Compound 90, 2-(3-fluoro-4-methoxyphenoxy)-N-(3-sulfamoylphenyl)-4,6-bis(trifluoromethyl)benzamide], in that order: 7 nM and 92%.
On to `COc1ccc(Oc2cc(C(F)(F)F)cc(C(F)(F)F)c2C(=O)Nc2cccc(S(N)(=O)=O)c2)c(F)c1` [Compound 91, 2-(2-fluoro-4-methoxyphenoxy)-N-(3-sulfamoylphenyl)-4,6-bis(trifluoromethyl)benzamide], for which the IC50 in data set [1] came out at 7 nM. Also, the “HLM: percent unchanged after 30 min” value in data set [2] stood at 69%.
The corresponding values for `COc1ccc(F)cc1Oc1cc(C(F)(F)F)cc(C(F)(F)F)c1C(=O)Nc1cccc(S(N)(=O)=O)c1` [Compound 92, 2-(5-fluoro-2-methoxyphenoxy)-N-(3-sulfamoylphenyl)-4,6-bis(trifluoromethyl)benzamide] are 16 nM and 113%.
Take `Cc1cc(F)ccc1Oc1cc(C(F)(F)F)cc(C(F)(F)F)c1C(=O)Nc1cccc(S(N)(=O)=O)c1` [Compound 93, 2-(4-fluoro-2-methylphenoxy)-N-(3-sulfamoylphenyl)-4,6-bis(trifluoromethyl)benzamide]: in data set [1], half-maximal inhibition (IC50) required 2 nM. In data set [2], the “HLM: percent unchanged after 30 min” value is listed as 96%.
For `NS(=O)(=O)c1cccc(NC(=O)c2c(Cl)cc(Cl)cc2Oc2ccc(F)cc2)c1` [Compound 94, 2,4-dichloro-6-(4-fluorophenoxy)-N-(3-sulfamoylphenyl)benzamide], in that order: 5 nM and 97%.
